# Measurements taken from patent publication US12064759B2, “Microfluidic device with embedded cell culture chambers for high throughput biological assays” (NUtech Ventures, priority 2020, dated 2024).
# Where a name gives a salt, the structure may show the parent alone.
# What was measured:
# A431 cells [1] = assay: Drug screening with live/dead assay on A431 cells in the MECT microfluidic device; format: cell-based
# Method: Taking advantage of the ability of the MECT device in generating uniform gradient within each chamber, a drug screening study with A431 cells administrated with control media and Dox was performed. Five conditions were studied: (1) Cells were stained with live/dead assay 24 hours after seeding without any media flow. This serves as the control; (2) cells were perfused by DMEM from both inlets for 12 hours before live/dead staining. This experiment examined the effect of shear stress on cell viability; (3, 4, 5) cells were perfused for 12 hours with DMEM/Dox (at a concentration of 30 μg/ml) from the bottom inlet and DMEM from the top inlet at flow rates of 0.05 μl/min (3), 0.1 μl/min (4) and 0.2 μl/min (5) for both inlets. Representative images for the studies of condition 1, 2, 4 and 5 are shown in FIGS. 6a-6d and of condition 3 in FIG. 7a. These studies were performed after the cells had been seeded within the microchambers for 24 hours. […] This provided clear evidence that cells within each chamber were viable and the device works properly. The effect of shear stress was then examined by perfusion of both inlets with a control media, Dulbecco's Modified Eagle Medium (DMEM) at a flow rate of 0.1 μl/min. Overall a slightly lower cell viability, at an average of 88%, was observed due to the shear induced cell death (FIG. 6b). In addition, the cell viability increased from the columns closest to the inlet of the device to the columns closes to the outlets, in agreement with COMSOL simulation where the shear stress is higher in the columns close to the inlets (FIG. 5).
# As discussed in microchannel fabrication, PDMS with ratio 1:10 were used to fabricate the microchannel and it was bonded to glass-slides and cured for 30 min at 80° C. inside the oven. Human fibronectin protein (Thermofisher) with the concentration of 50 μg/ml was used to coat the surface of the glass-slide as the bottom layer of the microchannels. Fibronectin was flowed into the microchannels by syringes and incubated for 2 hours. The fibronectin coated microchannel was washed with PBS. A mixture of the cell and DMEM was flowed into the microchannel by syringe pump at a flow rate (30 μl/min). The concentration of cell mixture was about 10 million cells per ml of media. Cell attachment and proliferation inside the microchannel was reached by placing the microchannel inside the incubator for 24 hours.
# Doxorubicin hydrochloride 98.0-102.0% (HPLC) with molecular weight of 579.98 was dissolved in water and was diluted in DMEM media. […] Cells were then counted with ImageJ cell counter module. Viability of the cells was calculated as the ratio of the live cells (stained green) over the total number of the cell, summation of the live (green) and dead (red) cells within each chamber.
# A431 cells [2] = assay: Multi-well (static culture) Dox study on A431 cells, live/dead assay; format: cell-based; conditions: Dox 0, 6, 12, 18, 24 and 30 μg/ml; device flow rate 0.05 μl/min
# Method: Viability data with DMEM/Dox at the inlets at a flow rate of 0.05 μl/ml was compared with Dox treatment of A431 cells in static culture. A lower flow rate was chosen to minimize the effect of the shear stress on cell detachment and cell death. […] Cell viabilities data was collected by counting cells stained green and red from these chambers. According to simulation data, the concentration of Dox in the chambers 13 through 18 are: 0 μg/ml, 6 μg/ml, 12 μg/ml, 18 μg/ml, 24 μg/ml and 30 μg/ml. These dosages were applied in static culture and the viability data were collected. […] Doxorubicin hydrochloride 98.0-102.0% (HPLC) with molecular weight of 579.98 was dissolved in water and was diluted in DMEM media. For A431 cells, live-dead staining kit was diluted with PBS and was continuously flowed into the chambers with cells for 2 hours. Live-dead kit contains, Calcein-AM which stains green to the cytoskeleton of live cells and ethidium homodimer which stains red to the nuclei of dead cells. Cells were then counted with ImageJ cell counter module. Viability of the cells was calculated as the ratio of the live cells (stained green) over the total number of the cell, summation of the live (green) and dead (red) cells within each chamber.
smiles,measurement,setting,value
"COc1cccc2c1C(=O)c1c(O)c3c(c(O)c1C2=O)C[C@@](O)(C(=O)CO)C[C@@H]3O[C@H]1C[C@H](N)[C@H](O)[C@H](C)O1 [Dox, Doxorubicin hydrochloride]",overall cell viability in condition 5 (0.2 μl/min DMEM/Dox) versus condition 4 (0.1 μl/min DMEM/Dox),"A431 cells [1]; 12 h, Dox 30 μg/ml, higher shear stress at higher flow rate",clearly lower
same,cell viability from chambers #13 to #18,"A431 cells [1]; 12 h DMEM/Dox 30 μg/ml, flow rates 0.05, 0.1 and 0.2 μl/min (conditions 3 through 5)",overall decline
same,cell viability from top chamber to bottom chamber of each column (lowest to highest Dox concentration),"A431 cells [1]; 12 h perfusion, DMEM top inlet, DMEM/Dox 30 μg/ml bottom inlet, flow rates 0.1 and 0.2 μl/min",decreased significantly
same,effect of increasing doxorubicin concentrations within chambers on skin cancer cells,A431 cells [1]; doxorubicin flowed into chambers at different flow rate,induces cell death
same,cell viability in static culture compared with device chambers #13 through #18,A431 cells [2],reasonable agreement
